# Source: paper PMC7952708, “In silico method for selecting residue pairs for single-molecule microscopy and spectroscopy” (Scientific Reports, 2021)
# Numbering of substitutions follows the chain as printed.
# Columns and labels:
# Experiment in all cases: solution-based ALEX single-molecule FRET titration
# [1] = biological target: T1, OpuAC (substrate-binding domain of OpuA) (Lactococcus lactis, UniProt Q7DAU8, D320C/K453C)
# T1 construct: gene busAB
# T1 sequence (Q7DAU8 320-573 D320C/K453C): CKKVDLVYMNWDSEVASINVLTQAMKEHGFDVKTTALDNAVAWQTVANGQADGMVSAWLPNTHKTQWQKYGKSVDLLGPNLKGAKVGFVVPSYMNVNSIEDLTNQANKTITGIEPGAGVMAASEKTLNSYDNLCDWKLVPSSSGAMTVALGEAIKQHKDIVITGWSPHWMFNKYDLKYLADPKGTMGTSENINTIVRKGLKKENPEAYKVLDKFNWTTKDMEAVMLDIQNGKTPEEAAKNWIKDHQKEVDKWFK
# [2] = biological target: T2, OpuAC (substrate-binding domain of OpuA) (Lactococcus lactis, UniProt Q7DAU8, K566C/N414C)
# T2 construct: gene busAB
# T2 sequence (Q7DAU8 320-573 N414C/K566C): T1 sequence (Q7DAU8 320-573 D320C/K453C) with C1D, N95C, C134K, K247C
# [3] = biological target: T3, OpuAC (substrate-binding domain of OpuA) (Lactococcus lactis, UniProt Q7DAU8, K521C/T504C)
# T3 construct: gene busAB
# T3 sequence (Q7DAU8 320-573 T504C/K521C): T1 sequence (Q7DAU8 320-573 D320C/K453C) with C1D, C134K, T185C, K202C
structure (smiles),measurement,setting,value
C[N+](C)(C)CC(=O)[O-] [glycine betaine],Kd,[1],1000 to 4000 nM
same,Kd,[2],1000 to 4000 nM
same,Kd,[3],38 µM
